Results published in patent US6762200B2, “Oxa(thia)zolidine derivative and anti-inflammatory drug” (Nippon Soda Co. Ltd., priority 2000, dated 2004).
Where two headings read alike, the source gives them in different places. Values belong to the compound of their own block, whether it stands above or below them.

How the values were obtained:
[1] = system: acetic acid-induced writhes; assay: Acetic acid writhing; assay type: in vivo, ICR-strain male mouse; conditions: i.p., 10 to 20 min after acetic acid
Protocol: This test was carried out referring to the method of Inoue, K., Motonaga, A. & Nishimura, T (Arzneimittel Forshung/Drug Research, 41 (1): 235-239 (1991)). More specifically, 7.5 mL/kg of 0.9% acetic acid solution was injected intraperitoneally into an ICR-strain male mouse (5 to 7 weeks old), and the induced writhes (characteristic behaviors of convulsive contracting the abdomen, twisting the body and/or extending the legs) were observed. Number of writhes of each mouse was measured during 10 to 20 min. period after acetic acid administration. The compound of the present invention was homogeneously suspended in 2% Tween 80/saline for injection use, and was injected intraperitoneally 30 min. before the induction by the acetic acid injection. Alternatively, the compound of the present invention was homogeneously suspended in 2% Tween 80/distilled water, and was administrated orally two hours before the induction by the acetic acid injection. The analgesic activity of the compounds according to the present invention was evaluated on the basis of the degree of inhibiting the number writhes by the administration of the compounds. As the positive control, indomethacin or aspirin was administrated. The analgesic activity of the compounds according to the present invention measured in this test were exemplified in Table 7.

[2] = system: picryl chloride-induced contact dermatitis (ear swelling); assay: Mouse delayed contact dermatitis induced by picryl chloride; conditions: for Ear swelling after 24 hours Left (Not applied) (Mean ± S.E., mm): topical to right ear, non-treated left ear; for Ear swelling after 24 hours Right (Applied) (Mean ± S.E., mm): topical
Protocol: This pharmacological test was carried out referring to the method of Asherson, G. L. & Ptak, W. (Immunology, 15: 405-416 (1968).) and the method of Jun Hiroi (Folia Pharmacology of Japan, 86: 233-239 (1985).). More specifically, hairs on the abdomen of an ICR-strain male mouse were removed using an electric clip and an electric shaver. Then, 0.1 mL of 7% ether solution of picryl chloride (Tokyo Kasei Kogyo Co., Ltd., C 0307) was applied onto the abdomen for sensitization. On the sixth day after the sensitization, 20 μL/ear of 1% olive oil solution of picryl chloride was topically applied to the anterior and posterior surfaces of both ears of the mouse to induce contact dermatitis (first induction). Before and 24 hours after the induction, the thicknesses of the particular parts on the both ears were measured three times, respectively, using a digimatic micrometer (Mitsutoyo Co., Ltd.) to work out the average values. Ear edema of the both ears was respectively determined by subtracting the average thickness of the each ear before the induction from that on 24 hours after the induction, so that a grouping was carried out to separate the appropriate individuals. On the fourth day after the first induction, the hairs on the abdomen were removed again, and 0.1 mL of 7% ethanol solution of picryl chloride was applied thereto for additional sensitization. The contact dermatitis for evaluating activity was induced by re-applying 20 μL/ear of 1% olive oil solution of picryl chloride to the anterior and posterior surfaces of both ears (second induction) on the seventh day after the additional sensitization (on the […] day after the first sensitization). The activity of each compound of the present invention was evaluated as the inhibition on the contact dermatitis as compared with that of the vehicle applied control. That is, the thicknesses of the particular portions of the both ears were measured respectively three times with a digimatic micrometer to work out the mean values before, 24 hours and 48 hours after the second induction. Ear swelling was determined by subtracting the ear thickness before the second induction from that on 24 hours and 48 hours after the second induction, respectively. Topical application activity was evaluated by applying 25 μL of the acetone solution of the compound of the present invention similarly to the anterior and posterior surfaces of the right ear one hour before and 16 hours after the second induction. As the positive control, 0.02 mg/20 μL of acetone solution of Dexamethasone (hereinafter referred to as DEX, Wako Pure Chemical Industries Ltd., 047-18863) was applied similarly as for the compound of the present invention. With respect to the inhibitory activity in topical application tests, the topical activity was determined by the inhibition of the applied right ear edema, and the translocation and distribution property was determined by the activity onto the swelling of non-treated left ear. Oral administration activity was evaluated by administrating 0.5% methyl cellulose suspension of the compound of the present invention forcibly and perorally to the mouse an hour before and 16 hours after the second induction. As the positive control, 20 mg/kg of Prednisolone (Sigma Chemical Co., P 6004) suspension was administrated similarly as for the compounds of the present invention.

IV-cPLA(2) = molecular target: T1, IV-cPLA(2) (Homo sapiens, UniProt P47712); assay: PLA(2) activity, hydrolysis of bis-BODIPY FL C11-PC in activated U937 cells; assay type: cell-based
T1 sequence (P47712 1-749): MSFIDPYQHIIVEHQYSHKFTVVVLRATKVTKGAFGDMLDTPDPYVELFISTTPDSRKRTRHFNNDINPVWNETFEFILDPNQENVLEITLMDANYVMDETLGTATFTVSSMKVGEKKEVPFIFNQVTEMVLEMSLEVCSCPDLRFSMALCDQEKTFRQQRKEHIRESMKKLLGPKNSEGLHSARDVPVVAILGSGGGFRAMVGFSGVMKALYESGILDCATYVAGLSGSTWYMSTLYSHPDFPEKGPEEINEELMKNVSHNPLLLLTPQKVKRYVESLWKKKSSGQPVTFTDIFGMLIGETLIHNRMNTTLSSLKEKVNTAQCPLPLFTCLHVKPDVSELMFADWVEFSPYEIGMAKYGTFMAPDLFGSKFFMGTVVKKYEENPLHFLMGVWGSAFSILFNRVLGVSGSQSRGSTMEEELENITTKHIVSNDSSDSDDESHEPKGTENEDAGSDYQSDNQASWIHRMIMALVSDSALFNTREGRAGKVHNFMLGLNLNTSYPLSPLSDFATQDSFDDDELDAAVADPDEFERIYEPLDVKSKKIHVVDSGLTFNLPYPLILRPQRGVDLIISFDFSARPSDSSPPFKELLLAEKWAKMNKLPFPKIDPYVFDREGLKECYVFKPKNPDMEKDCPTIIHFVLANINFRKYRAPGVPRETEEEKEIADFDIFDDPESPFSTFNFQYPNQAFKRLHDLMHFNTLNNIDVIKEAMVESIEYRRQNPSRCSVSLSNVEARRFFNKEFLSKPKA
Protocol: The PLA(2) activity was measured by quantitatively analyzing the fluorescent product of hydrolysis from 1,2-bis-(4,4-difluoro-5,7-dimethyl-4-bora-3a,4a-diaza-s-indecene-3-undecanoyl)-sn-glycero-3-phosphocholine (hereinafter referred to bis-BODIPY®FL C11—PC, Molecular Probes, Inc., B-7701) using activated U937 cells (human monoblastic lymphoma cell line) by inflammatory stimulus (Meshulam, T. et al., The journal of Biological Chemistry 267 (30): 21465-21470 (1992); and Solito, E. et al., British Journal of Pharmacology 124: 1675-1683 (1998).). The substrate bis-BODIPY®FL C11—PC is incorporated into cellular membranes, the proximity of the BODIPY FL fluorophores on adjacent phospholipid acyl chains causes fluorescence self-quenching. Separation of the fluorophores upon hydrolytic cleavage of one of the acyl chains by PLA(1) or the PLA(2) results in increased fluorescence. In the activated U937 by inflammatory stimulus, it is shown that this substrate should be cleaved enzymatically by IV-cPLA(2) from the feature of its behaviors including sensitivity profiles against the inhibitors.
The human cell line U937 was purchased from Dai-Nippon Pharmaceuticals Co., Ltd. The cells were maintained by transferring every 3-4 days into RPMI 1640 medium (Sigma Chemical Co., R6504) supplemented with heat-inactivated 10% fetal bovine serum (Fetal Bovine Serum, Sigma Chemical Co., F 4135) in a 5% CO2 humidified atmosphere at 37° C. The cells were transferred into the culture medium described above, containing 1.2% (v/v) dimethylsulfoxide (hereinafter referred to as […], Nacalai tesque Co., Ltd., D 134-45), and pre-cultured for 96 to 120 hours so as to differentiate into the macrophage-like cells to be provided for the assay. The macrophage-like cells were collected and washed by centrifugation with the Assay medium (Dulbecco's phosphate buffered saline (hereinafter referred to as PBS)-2.2 mM glucose-2.5 μm albumin). Then, Phorbol 12-Myristate 13-Acetate (hereinafter referred to as TPA, Sigma Chemical Co., P 8139) was added to the Assay medium to be 1×10^−8M as the final concentration. Then, the macrophage-like cells were further cultured for an hour to be activated (Rzigalinski, B. A. & Rosenthal, M. D., Biochimica et Biophysica Acta 1223: 219-225 (1994); and Gonchar, M. V. et al., Biochemical and Biophysical Research Communication, 249: 829-832 (1998).).
For preparing substrate liposome suspension, bis-BODIPY®FL C11—PC was combined with phosphatidylcholine (Sigma Chemical Co., P 7769) at 1:9 molar ratio in chloroform, and dried under nitrogen flow. The dried mixture was suspended with the Assay medium at 100 μg/mL, voltexed and sonicated for an hour on ice under dark condition.
The test compound was dissolved with DMSO at 30 mM, and the solution diluted with either DMSO or the Assay medium before addition into the reaction mixture. The DMSO concentration in the reaction mixture was controlled so as to be no more than 0.1%. The 30-fold concentration of test compound solution was put into each well of MICRPTEST™ Tissue Culture Plate, 96 Well (Falcon, 3072) at a rate of 2.5 μL/well. To the respective well was added 25 μL/well of the activated U937 cell suspension ([…]), and the cells were pre-cultured for 120 min. at 37° C. in a 5% CO2 atmosphere incubator. 47.5 μL/well of the substrate liposome suspension with 1.5×10^−6M A23187 (Sigma Chemical Co., C 7522) was added into each well to prepare 75 μL/well of the total reaction mixture, followed by culture for 30 min. under the same conditions with shielding against light. 100 μL/well of 0.1% GEDTA (Dojindo Laboratories Co. Ltd., 348-01311) methanol solution was added into each well and mixed to stop the reaction. […]

TPA-induced ear edema = assay type: in vivo, ICR-strain male mouse; conditions: topical, 6 hours after TPA
Protocol: This test was carried out referring to the method of Carlson, R. P. et al. (Agents and Actions, 17(2): 197-204 (1985).) and the method of Chang, J. (European Journal of Pharmacology, 142: 197-205 (1987).). […] 6 hours later, the thickness of each ear at the particular part was respectively measured three times using a digimatic micrometer to calculate the mean value. Ear edema was determined by subtracting the mean thickness of the left ear as without treatment from that of the right ear as TPA-applied. […] As the positive control, 100 mg/kg of Hydrocortisone (Sigma Chemical Co., H 4001) suspension was applied to the mouse similarly as for the compound of the present invention.

SMILES: CC(=O)Oc1ccccc1C(=O)O [Aspirin, aspirin, reference compound]
Number of writhes (Mean ± S.E.) ([1]; 30 mg/kg): 9.5 ± 2.0

SMILES: CC1C(c2ccc(C(=O)OC(F)(F)F)cc2)SC(=O)N1C(=O)NC1CCCCO1 (stereo not drawn) [Compound 2-240]
Ear swelling after 24 hours Left (Not applied) (Mean ± S.E., mm) ([2]; 1.5 mg/25 μL/ear × 2): 0.238 ± 0.024 mm | Ear swelling after 24 hours Right (Applied) (Mean ± S.E., mm) ([2]; 1.5 mg/25 μL/ear × 2): 0.246 ± 0.009 mm

SMILES: C[C@@H]1C[C@H]2[C@@H]3CCC4=CC(=O)C=C[C@]4(C)[C@@]3(F)[C@@H](O)C[C@]2(C)[C@@]1(O)C(=O)CO [DEX, Dexamethasone, reference compound]
Change in body weight 48 hours after induction (Mean ± S.E.) ([2]; 0.02 mg/ear × 2): -1.42 ± 0.20 g | Change in body weight 48 hours after induction (Mean ± S.E.) (%) ([2]; 0.02 mg/ear × 2): −4.30 ± 0.59% | General condition and body weight of mice ([2]; 48 hours after the second induction): generally bad symptoms and reducing their body weight significantly | Ear swelling after 24 hours Left (Not applied) (Mean ± S.E., mm) ([2]; dose 0.02 mg/ear × 2): −0.005 ± 0.033 mm | Ear swelling after 24 hours Right (Applied) (Mean ± S.E., mm) ([2]; dose 0.02 mg/ear × 2): 0.057 ± 0.009 mm

SMILES: COc1ccc2c(c1)c(CC(=O)O)c(C)n2C(=O)c1ccc(Cl)cc1 [Indomethacin, indomethacin, reference compound]
Number of writhes (Mean ± S.E.) ([1]; 3 mg/kg): 13.8 ± 3.0 | Number of writhes (Mean ± S.E.) ([1]; 10 mg/kg): 4.8 ± 0.9

SMILES: CC(C)N=C1OC(c2ccc(Cl)cc2)C(C)N1C(=O)NC1CCCCC1 (stereo not drawn) [Compound 1-28]
Inhibition (%) (IV-cPLA(2); 0.1 μM): 93% | Ear Edema Inhibition (%) (TPA-induced ear edema; 1 mg/20 μL/ear × 2): 36%

SMILES: CC(=O)N=C1SC(c2ccccc2)C(C)N1C(=O)NC1CCCCC1 (stereo not drawn) [Compound 1-43]
Ear swelling after 24 hours Left (Not applied) (Mean ± S.E., mm) ([2]; 1.5 mg/25 μL/ear × 2): 0.201 ± 0.008 mm | Ear swelling after 24 hours Right (Applied) (Mean ± S.E., mm) ([2]; 1.5 mg/25 μL/ear × 2): 0.196 ± 0.029 mm

Further lines, with some results ahead:

Inhibition (%) (IV-cPLA(2); 1 μM): 78%
SMILES: CC1C(c2ccc(Cl)cc2)SC(=O)N1C(=S)NC1CCCCC1 (stereo not drawn) [Compound 2-194]
Ear swelling after 24 hours Left (Not applied) (Mean ± S.E., mm) ([2]; 1.5 mg/25 μL/ear × 2): 0.226 ± 0.016 mm | Ear swelling after 24 hours Right (Applied) (Mean ± S.E., mm) ([2]; 1.5 mg/25 μL/ear × 2): 0.223 ± 0.010 mm

Inhibition (%) (IV-cPLA(2); 0.1 μM): 82%
SMILES: Cc1ccc(C2OC(=O)N(C(=O)NC3CCCCO3)C2C)cc1 (stereo not drawn) [Compound 2-170]
Ear Edema Inhibition (%) (TPA-induced ear edema; 0.3 mg/20 μL/ear × 2): 57%

Inhibition (%) (IV-cPLA(2); 0.1 μM): 100%
SMILES: Cc1ccc(C2OC(=O)N(C(=O)NS(=O)(=O)c3ccccc3C)C2C)cc1 (stereo not drawn) [Compound 2-60]
Ear Edema Inhibition (%) (TPA-induced ear edema; 1 mg/40 μL/ear × 2): 53%

Inhibition (%) (IV-cPLA(2); 0.1 μM): 95%
SMILES: CCOC(=O)C(C)NC(=O)N1C(=O)OC(c2ccc(C)cc2)C1C (stereo not drawn) [Compound 2-54]
Ear Edema Inhibition (%) (TPA-induced ear edema; 0.3 mg/20 μL/ear × 2): 64%

Inhibition (%) (IV-cPLA(2); 1 μM): 81%
SMILES: CC1C(c2ccc(Oc3ccccc3)cc2)OC(=O)N1C(=O)NC1CCCO1 (stereo not drawn) [Compound 2-128]
Ear Edema Inhibition (%) (TPA-induced ear edema; 1 mg/40 μL/ear × 2): 49%

Inhibition (%) (IV-cPLA(2); 0.1 μM): 61%
SMILES: CC1C(c2ccc(Cl)cc2)SC(=O)N1C(=O)NS(=O)(=O)c1ccccc1Cl (stereo not drawn) [Compound 2-36]
Ear Edema Inhibition (%) (TPA-induced ear edema; 0.3 mg/20 μL/ear × 2): 41%
